Results as given in patent publication US20050101595A1, “N-containing cycloalkyl-substituted amino-thiazole derivatives and pharmaceutical compositions for inhibiting cell proliferation and methods for their use” (PFIZER INC., priority 2003, published 2005).
Counter-ions that a name gives are not always drawn. Like-named read-outs stand apart in the source and are kept apart here.

What was measured:
HCT-116 cell line = assay: Inhibition of cell growth, tetrazolium salt (MTT) assay; format: cell-based; conditions: for IC50: Homo sapiens, HCT-116, 120 h, MTT, three to five days, read-out: HCT-116 IC50; for HCT-116 % Inhibition at 0.25 μM: 0.25 μM compound
Procedure, shortened: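 MTT colorimetric viability: three-to-five-day compound exposure in 0.5% (v/v) DMSO at 37° C, MTT 0.2 mg/mL for the last 4 h, A540 compared with vehicle-treated cells.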

CDK2/Cyclin A = CDK2/Cyclin A (Homo sapiens, UniProt P24941); assay: Inhibition of CDK2/Cyclin A Retinoblastoma Kinase Activity; format: biochemical; conditions: for Ki: apparent Ki, CDK2/proteolyzed cyclin A, Rb fragment substrate, 25 μM ATP; for CDK2 % Inhibition At 0.03 μM: Table 2
Procedure, shortened: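 CDK2 (10 or 19 nM), insect-cell expressed, gel-filtration purified with truncated cyclin A; Rb fragment substrate; 25 μM ATP; 10 mM HEPES pH 7.4, 10 mM MgCl2; 30° C, 60 or 75 min; EDTA stop; phosphocellulose/nitrocellulose capture, phosphorimager. % inhibition vs DMSO control, no-enzyme background subtracted.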

[1] = biological target: human CDK4 and genetically truncated (1-264) cyclin D3 (Homo sapiens, UniProt P11802); assay: Inhibition of CDK4/Cyclin D Retinoblastoma Kinase Activity; format: biochemical; conditions: for Ki: apparent Ki, CDK4/truncated cyclin D3, Rb fragment substrate, 25 μM ATP
Procedure, shortened: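 The enzyme complex (5 nM), expressed in co-infected insect cells, was incubated with recombinant Rb fragment, 25 μM radiolabelled ATP and 2% DMSO at 30 °C. Reactions were stopped with EDTA after 20 minutes, or 60 minutes for tight-binding inhibitors. Apparent Ki values came from competitive inhibition fits.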

human CDK4 and genetically truncated (1-264) cyclin D3, sequence (P11802 whole entry, the tested form may be a part): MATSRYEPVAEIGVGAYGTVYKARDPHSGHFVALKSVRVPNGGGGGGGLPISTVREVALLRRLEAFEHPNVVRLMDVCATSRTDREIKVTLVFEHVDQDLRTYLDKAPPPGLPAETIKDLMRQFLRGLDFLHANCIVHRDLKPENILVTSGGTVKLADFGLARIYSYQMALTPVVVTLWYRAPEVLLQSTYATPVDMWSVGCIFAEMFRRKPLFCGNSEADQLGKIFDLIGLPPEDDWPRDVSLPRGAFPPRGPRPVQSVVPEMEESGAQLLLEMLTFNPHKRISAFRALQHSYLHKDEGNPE
human CDK4 and genetically truncated (1-264) cyclin D3, sequence (P30281 1-264 partner): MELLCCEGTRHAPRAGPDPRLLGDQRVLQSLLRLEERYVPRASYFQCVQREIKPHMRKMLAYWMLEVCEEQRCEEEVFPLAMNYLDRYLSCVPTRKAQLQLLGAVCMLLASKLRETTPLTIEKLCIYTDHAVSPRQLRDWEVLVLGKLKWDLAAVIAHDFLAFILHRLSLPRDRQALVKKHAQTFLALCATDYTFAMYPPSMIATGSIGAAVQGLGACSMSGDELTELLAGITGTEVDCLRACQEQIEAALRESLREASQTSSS

| IC50 (HCT-116 cell line; first HCT-116 column (c4)) | IC50 (HCT-116 cell line; second HCT-116 column (c5)) | Ki (CDK2/Cyclin A) | Ki [1] | SMILES | other results |
| --- | --- | --- | --- | --- | --- |
| 220 nM | 510 nM | 59 nM | 12 nM | Nc1nc(NC2CCN(C(=O)c3cccc([N+](=O)[O-])c3)CC2)sc1C(=O)c1c(F)cccc1F [Example C12, 1-(4-Amino-2-{1-[1-(3-nitro-phenyl)-methanoyl]-piperidin-4-ylamino}-thiazol-5-yl)-1-(2,6-difluoro-phenyl)-methanone] | – |
| 1900 nM | > 5000 nM | < 1 nM | 0.68 nM | CC1(C)CN(c2ccc(S(=O)(=O)N3CCC(Nc4nc(N)c(C(=O)c5c(F)cccc5F)s4)CC3)cn2)C=N1 [Example G21, 1-(4-Amino-2-{1-[6-(4,4-dimethyl-4,5-dihydro-imidazol-1-yl)-pyridine-3-sulfonyl]-piperidin-4-ylamino}-thiazol-5-yl)-1-(2,6-difluoro-phenyl)-methanone] | – |
| – | – | – | – | Nc1nc(NC2CCN(C(=O)Nc3ccc(C(F)(F)F)cc3)CC2)sc1C(=O)c1c(F)cccc1F [Example O23] | HCT-116 % Inhibition at 0.25 μM (HCT-116 cell line; HCT-116, Table 2): 24%; CDK2 % Inhibition At 0.03 μM (CDK2/Cyclin A; 0.03 μM compound): 36%; CDK4 % Inhibition at 0.03 μM ([1]; 0.03 μM compound, Table 2): 10% |
| – | – | – | – | Nc1nc(NC2CCN(C(=O)Nc3ccccc3)CC2)sc1C(=O)c1c(F)cccc1F [Example O3] | HCT-116 % Inhibition at 0.25 μM (HCT-116 cell line; HCT-116, Table 2): 0%; CDK2 % Inhibition At 0.03 μM (CDK2/Cyclin A; 0.03 μM compound): 34%; CDK4 % Inhibition at 0.03 μM ([1]; 0.03 μM compound, Table 2): 6% |
| – | – | – | – | Nc1nc(NC2CCN(C(=O)NCc3ccccc3)CC2)sc1C(=O)c1c(F)cccc1F [Example O37] | HCT-116 % Inhibition at 0.25 μM (HCT-116 cell line; HCT-116, Table 2): 34%; CDK2 % Inhibition At 0.03 μM (CDK2/Cyclin A; 0.03 μM compound): 40%; CDK4 % Inhibition at 0.03 μM ([1]; 0.03 μM compound, Table 2): 12% |
| > 50 nM | > 50 nM | 5.9 nM | 2 nM | CN(C)CCSCCCS(=O)(=O)N1CCC(Nc2nc(N)c(C(=O)c3c(F)cccc3F)s2)CC1 [Example K24, 1-(4-Amino-2-{1-[3-(2-dimethylamino-ethylsulfanyl)-propane-1-sulfonyl]-piperidin-4-ylamino}-thiazol-5-yl)-1-(2,6-difluoro-phenyl)-methanone.] | – |
| 140 nM | 300 nM | 1.2 nM | 0.57 nM | Nc1nc(NC2CCN(S(=O)(=O)c3ccc(CCCN4CCCCC4)nc3)CC2)sc1C(=O)c1c(F)cccc1F [Example I14, 1-(4-Amino-2-{1-[6-(3-piperidin-1-yl-propyl)-pyridine-3-sulfonyl]-piperidin-4-ylamino}-thiazol-5-yl)-1-(2,6-difluoro-phenyl)-methanone Trifluoroacetic Acid Salt] | – |
| 2800 nM | 5000 nM | 53 nM | 18 nM | Nc1nc(NC2CCN(C(=O)c3ccncc3)CC2)sc1C(=O)c1c(F)cccc1F [Example C13] | – |
| – | – | – | – | CC(C)(C)c1ccc(S(=O)(=O)N2CCC(Nc3nc(N)c(C(=O)c4c(F)cccc4F)s3)CC2)cc1 [Example P22] | HCT-116 % Inhibition at 0.1 μM (HCT-116 cell line; 0.1 μM compound, HCT-116, Table 3): 27%; HCT-116 % Inhibition at 0.25 μM (HCT-116 cell line; HCT-116, Table 3): 31%; CDK2 % Inhibition at 0.03 μM (CDK2/Cyclin A; 0.03 μM compound, Table 3): 29%; CDK4 % Inhibition at 0.03 μM ([1]; 0.03 μM compound, Table 3): 38% |
| – | – | – | – | COc1cccc(OC)c1C(=O)N1CCC(Nc2nc(N)c(C(=O)c3c(F)cccc3F)s2)CC1 [Example R118] | HCT-116 % Inhibition at 0.1 μM (HCT-116 cell line; HCT-116 cells, at 0.1 μM): 7%; HCT-116 5 Inhibition at 0.25 μM (HCT-116 cell line; HCT-116 cells): 47; CDK2 % Inhibition at 0.03 μM (CDK2/Cyclin A; at 0.03 μM): 36%; CDK4 % Inhibition at 0.03 μM ([1]; at 0.03 μM): 33% |
| 300 nM | 3400 nM | 1.3 nM | 1.1 nM | CN(C)CCCc1ccc(S(=O)(=O)N2CCC(Nc3nc(N)c(C(=O)c4c(F)cccc4F)s3)CC2)cn1 [Example I12, 1-(4-Amino-2-{1-[6-(3-dimethylamino-propyl)-pyridine-3-sulfonyl]-piperidin-4-ylamino}-thiazol-5-yl)-1-(2,6-difluoro-phenyl)-methanone] | – |
| 110 nM | 1500 nM | 0.82 nM | 0.53 nM | CC1(C)CN(c2ccc(S(=O)(=O)N3CCC(Nc4nc(N)c(C(=O)c5c(F)cccc5F)s4)CC3)cc2)CCN1 [Example G31, 1-(4-Amino-2-{1-[4-(3,3-dimethyl-piperazin-1-yl)-benzenesulfonyl]-piperidin-4-ylamino}-thiazol-5-yl)-1-(2,6-difluoro-phenyl)-methanone] | – |
| – | – | – | – | CCCC(C)C(=O)N1CCC(Nc2nc(N)c(C(=O)c3c(F)cccc3F)s2)CC1 (centres unmarked) [Example R165] | HCT-116 % Inhibition at 0.1 μM (HCT-116 cell line; HCT-116 cells, at 0.1 μM): 0%; HCT-116 5 Inhibition at 0.25 μM (HCT-116 cell line; HCT-116 cells): 42; CDK2 % Inhibition at 0.03 μM (CDK2/Cyclin A; at 0.03 μM): 3%; CDK4 % Inhibition at 0.03 μM ([1]; at 0.03 μM): 22% |
| 160 nM | 330 nM | 0.4 nM | 0.85 nM | Cc1cncn1-c1ccc(S(=O)(=O)N2CCC(Nc3nc(N)c(C(=O)c4c(F)cccc4F)s3)CC2)cn1 [Example G28, 1-(4-Amino-2-{1-[6-(5-methyl-imidazol-1-yl)-pyridine-3-sulfonyl]-piperidin-4-ylamino}-thiazol-5-yl)-1-(2,6-difluoro-phenyl)-methanone Hydrochloride] | – |
